Experimental data taken from US12234237B2, “Folate salts” (priority 2018, dated 2025).

Test: Solubility of the folate salt in organic (apolar) solvents at 20° C.
Conditions: based on total weight of the solution
Method: Solubility has been determined at 20° C. Apolar solvents or mixtures thereof are for instance glycerol, methanol, ethanol, 1-propanol, 2-propanol and dimethylsulfoxid (DMSO). Apolar solvents are understood as dry solvents, that is without any water content. Apolar solvents may be pure solvents, comprising only one type of apolar solvent or it may be a mixture of at least two of the aforementioned apolar solvents. Polarity is in comparison to the polarity of water.
A high degree of crystallinity means that the crystalline content of the folate salt is higher than 40% based on the total amount of the folate salt.

Row | SMILES | Solubility in 1-Propanol [% w/w] | Solubility in DMSO [% w/w] | Solubility in Ethanol [% w/w] | Solubility in Glycerol [% w/w] | Solubility in Methanol [% w/w]
1 | CN1c2c(nc(N)[nH]c2=O)NC[C@@H]1CNc1ccc(C(=O)N[C@@H](CCC(=O)O)C(=O)O)cc1.CNCCO.CNCCO [L-MTHF di NMAE, 5-Methyl-(6S)-tetrahydrofolic acid di N-methylaminoethanol salt] | 0.1 | 3.5 | 0.2 | 16.7 | 3.6
2 | CN(C)CCO.CN1c2c(nc(N)[nH]c2=O)NC[C@@H]1CNc1ccc(C(=O)N[C@@H](CCC(=O)O)C(=O)O)cc1 [L-MTHF mono deanol, 5-Methyl-(6S)-tetrahydrofolic Acid Mono 2-Dimethylaminoethanol Salt] | 0.2 | 24.8 | 0.2 | 10.0 | 2.5
3 | CC(C)(N)CO.CC(C)(N)CO.CN1c2c(nc(N)[nH]c2=O)NC[C@@H]1CNc1ccc(C(=O)N[C@@H](CCC(=O)O)C(=O)O)cc1 [L-MTHF di AMP, 5-Methyl-(6S)-tetrahydrofolic acid di 2-Amino-2-methyl propanol salt] | 0.1 | 23.1 | 0.1 | 16.7 | 11.2
